According to ChEMBL document CHEMBL4706588, “Rational design and biological evaluation of a new class of thiazolopyridyl tetrahydroacridines as cholinesterase and GSK-3 dual inhibitors for Alzheimer's disease” (Eur J Med Chem, 2020):
The source made the active and inactive calls. The rule behind the calls is not given here.

Key:
[1] = Effect on cell morphology in LPS-treated mouse BV-2 cells at 5 uM pretreated for 1 hr followed by incubation with LPS for 24 hrs by fluorescence microscopic analysis; assay type: ADME; details: bv-2, 25 h
[2] = biological target: Glycogen synthase kinase-3 beta (Mus musculus) (UniProt Q9WV60); test: Inhibition of GSK3beta in mouse N2a cells overexpressing human tau protein assessed as reduction in tau Ser396 residue phosphorylation at 5 uM incubated for 1 hr followed by okadaid-acid addition and measured after 5 hrs by Western blot analysis relative to control; assay type: cell-based; details: time 6.0 hrs
Glycogen synthase kinase-3 beta (Mus musculus), sequence (Q9WV60 whole entry, looked up): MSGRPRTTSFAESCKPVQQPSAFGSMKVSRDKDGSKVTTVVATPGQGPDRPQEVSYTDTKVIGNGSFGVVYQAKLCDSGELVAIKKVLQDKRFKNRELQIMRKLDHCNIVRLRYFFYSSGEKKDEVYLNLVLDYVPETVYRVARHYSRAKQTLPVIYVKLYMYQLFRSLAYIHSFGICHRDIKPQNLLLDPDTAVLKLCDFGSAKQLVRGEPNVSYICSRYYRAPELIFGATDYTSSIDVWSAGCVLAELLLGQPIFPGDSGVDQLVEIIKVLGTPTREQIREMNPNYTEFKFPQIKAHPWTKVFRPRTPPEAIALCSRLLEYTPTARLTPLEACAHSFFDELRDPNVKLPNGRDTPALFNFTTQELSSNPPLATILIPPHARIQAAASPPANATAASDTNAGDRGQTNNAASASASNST

[3] = biological target: Mitogen-activated protein kinase 13 (Homo sapiens) (UniProt O15264); test: Inhibition of P38delta (unknown origin) at 300 nM relative to control
Mitogen-activated protein kinase 13 (Homo sapiens), sequence (O15264 whole entry): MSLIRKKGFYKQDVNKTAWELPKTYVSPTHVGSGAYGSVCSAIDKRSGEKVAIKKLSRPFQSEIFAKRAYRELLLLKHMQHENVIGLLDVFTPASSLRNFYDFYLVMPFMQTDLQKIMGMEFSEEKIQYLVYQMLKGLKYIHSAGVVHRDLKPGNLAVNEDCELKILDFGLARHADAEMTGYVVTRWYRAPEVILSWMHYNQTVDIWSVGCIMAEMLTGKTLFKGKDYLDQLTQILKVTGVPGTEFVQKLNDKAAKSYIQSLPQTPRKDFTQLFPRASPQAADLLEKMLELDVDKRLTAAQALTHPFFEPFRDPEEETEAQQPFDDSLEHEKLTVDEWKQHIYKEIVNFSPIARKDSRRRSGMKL

Homo sapiens [4] = species: Homo sapiens; test: Selectivity for GSK3 (unknown origin) over CDK1 (unknown origin)
Homo sapiens [5] = species: Homo sapiens; test: Selectivity for GSK3 (unknown origin) over MAPK p38 delta (unknown origin)
in vitro = details: PAMPA
Description: Effective permeability of compound at 100 ug/ml incubated for 20 hrs by PAMPA-BBB assay

Homo sapiens [6] = species: Homo sapiens; test: Selectivity for GSK3 (unknown origin) over MAPK p38 gamma (unknown origin)
BV-2 = test: Inhibition of LPS-induced ROS production in mouse BV-2 cells at 5 uM incubated for 1 hr followed by LPS stimulation and measured after 24 hrs by DCFH-DA staining based inverted fluorescence microscopic analysis; assay type: functional, cell-based; details: time 25.0 hrs
[7] = biological target: Mitogen-activated protein kinase 10 (Homo sapiens) (UniProt P53779); test: Inhibition of JNK3 (unknown origin) at 300 nM relative to control
[8] = biological target: Mitogen-activated protein kinase 14 (Homo sapiens) (UniProt Q16539); test: Inhibition of P38alpha (unknown origin) at 300 nM relative to control
Mitogen-activated protein kinase 14 (Homo sapiens), sequence (Q16539 whole entry): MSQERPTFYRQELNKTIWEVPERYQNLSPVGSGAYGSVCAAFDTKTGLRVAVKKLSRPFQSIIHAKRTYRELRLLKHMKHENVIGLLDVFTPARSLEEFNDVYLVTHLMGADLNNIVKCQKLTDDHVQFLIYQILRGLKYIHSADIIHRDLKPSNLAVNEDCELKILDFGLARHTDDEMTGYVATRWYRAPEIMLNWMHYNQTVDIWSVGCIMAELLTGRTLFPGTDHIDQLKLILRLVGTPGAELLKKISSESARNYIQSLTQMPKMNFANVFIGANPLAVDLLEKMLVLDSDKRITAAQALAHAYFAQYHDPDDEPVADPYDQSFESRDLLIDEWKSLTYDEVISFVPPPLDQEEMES

[9] = biological target: T1, Dual specificity tyrosine-phosphorylation-regulated kinase 1A (Homo sapiens, UniProt Q13627); test: Inhibition of DYRK1alpha (unknown origin) at 300 nM relative to control
[10] = biological target: Mitogen-activated protein kinase 1 (Homo sapiens) (UniProt P28482); test: Inhibition of ERK2 (unknown origin) at 300 nM relative to control
Mitogen-activated protein kinase 1 (Homo sapiens), sequence (P28482 whole entry): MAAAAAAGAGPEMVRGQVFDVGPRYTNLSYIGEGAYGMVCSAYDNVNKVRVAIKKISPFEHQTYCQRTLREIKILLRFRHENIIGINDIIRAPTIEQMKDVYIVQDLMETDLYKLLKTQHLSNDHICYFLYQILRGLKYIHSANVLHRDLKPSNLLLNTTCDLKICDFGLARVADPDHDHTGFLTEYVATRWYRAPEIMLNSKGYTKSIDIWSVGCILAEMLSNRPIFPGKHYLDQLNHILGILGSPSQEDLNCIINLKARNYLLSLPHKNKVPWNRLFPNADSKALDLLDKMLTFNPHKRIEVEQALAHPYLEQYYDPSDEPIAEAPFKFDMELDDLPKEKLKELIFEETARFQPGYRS

[11] = biological target: T1, Dual specificity tyrosine-phosphorylation-regulated kinase 1A; test: Inhibition of DYRK1alpha (unknown origin)
Homo sapiens [12] = species: Homo sapiens; test: Selectivity for GSK3 (unknown origin) over CDK7 (unknown origin)
Mus musculus = test: Cognitive enhancing effect in ICR mouse model of scopolamine-induced memory impairment assessed as improvement in trajectories to platform at 15 mg/kg, po administered 30 mins prior to scopolamine injection by Morris water maze test; assay type: functional, organism-based
Homo sapiens [13] = species: Homo sapiens; test: Selectivity for GSK3 (unknown origin) over JNK3 (unknown origin)
Homo sapiens [14] = species: Homo sapiens; test: Selectivity for GSK3 (unknown origin) over CDK2 (unknown origin)
Acetylcholinesterase = Acetylcholinesterase (Homo sapiens, UniProt P22303); test: Inhibition of human AChE using acetylthiocholine iodide as substrate preincubated with enzyme for 1 min followed by substrate addition and measured after 10 mins by Ellman's method
Acetylcholinesterase, sequence (P22303 whole entry): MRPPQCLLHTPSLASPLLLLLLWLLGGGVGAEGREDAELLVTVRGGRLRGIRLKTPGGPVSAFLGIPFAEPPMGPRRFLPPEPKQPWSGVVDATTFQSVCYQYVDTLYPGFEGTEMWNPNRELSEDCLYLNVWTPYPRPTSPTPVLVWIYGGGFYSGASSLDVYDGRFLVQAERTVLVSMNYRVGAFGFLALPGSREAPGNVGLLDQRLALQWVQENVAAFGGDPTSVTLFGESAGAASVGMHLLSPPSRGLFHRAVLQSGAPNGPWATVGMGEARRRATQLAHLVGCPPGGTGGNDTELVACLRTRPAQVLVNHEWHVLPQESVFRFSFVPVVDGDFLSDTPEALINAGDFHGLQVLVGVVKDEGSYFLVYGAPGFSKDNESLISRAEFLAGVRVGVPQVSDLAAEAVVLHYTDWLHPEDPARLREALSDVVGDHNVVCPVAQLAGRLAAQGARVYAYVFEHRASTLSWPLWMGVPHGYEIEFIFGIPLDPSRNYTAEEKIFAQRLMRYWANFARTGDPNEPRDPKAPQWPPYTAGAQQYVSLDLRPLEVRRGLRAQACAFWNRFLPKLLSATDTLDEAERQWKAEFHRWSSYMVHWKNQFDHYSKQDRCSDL

[15] = biological target: T2, Glycogen synthase kinase-3 beta (Homo sapiens, UniProt P49841); test: Inhibition of GSK-3beta (unknown origin) at 300 nM relative to control
[16] = biological target: Cyclin-dependent kinase 2 (Homo sapiens) (UniProt P24941); test: Inhibition of CDK2 (unknown origin) at 300 nM relative to control
[17] = biological target: Mitogen-activated protein kinase 9 (Homo sapiens) (UniProt P45984); test: Inhibition of JNK2 (unknown origin) at 300 nM relative to control
Mitogen-activated protein kinase 9 (Homo sapiens), sequence (P45984 whole entry, looked up): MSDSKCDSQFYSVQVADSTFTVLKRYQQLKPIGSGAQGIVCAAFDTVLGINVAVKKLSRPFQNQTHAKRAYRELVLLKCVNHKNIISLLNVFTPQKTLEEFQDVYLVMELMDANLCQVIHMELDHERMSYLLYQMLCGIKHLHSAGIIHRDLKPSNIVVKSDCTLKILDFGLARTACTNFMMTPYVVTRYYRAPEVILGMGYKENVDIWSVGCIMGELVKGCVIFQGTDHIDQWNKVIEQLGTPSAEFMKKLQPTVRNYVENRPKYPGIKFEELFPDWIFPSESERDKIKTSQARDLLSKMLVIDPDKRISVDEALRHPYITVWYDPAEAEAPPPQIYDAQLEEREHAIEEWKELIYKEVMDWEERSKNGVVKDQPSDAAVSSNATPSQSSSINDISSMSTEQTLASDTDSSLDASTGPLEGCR

Cholinesterase = Cholinesterase (Homo sapiens, UniProt P06276); test: Inhibition of human BuChE using butyrylthiocholine iodide as substrate preincubated with enzyme for 1 min followed by substrate addition and measured after 10 mins by Ellman's method
Homo sapiens [18] = species: Homo sapiens; test: Selectivity for GSK3 (unknown origin) over CDK6 (unknown origin)
[19] = biological target: Mitogen-activated protein kinase 12 (Homo sapiens) (UniProt P53778); test: Inhibition of P38gamma (unknown origin) at 300 nM relative to control
[20] = biological target: Cyclin-dependent kinase 4 (Homo sapiens) (UniProt P11802); test: Inhibition of CDK4 (unknown origin) at 300 nM relative to control
Cyclin-dependent kinase 4 (Homo sapiens), sequence (P11802 whole entry): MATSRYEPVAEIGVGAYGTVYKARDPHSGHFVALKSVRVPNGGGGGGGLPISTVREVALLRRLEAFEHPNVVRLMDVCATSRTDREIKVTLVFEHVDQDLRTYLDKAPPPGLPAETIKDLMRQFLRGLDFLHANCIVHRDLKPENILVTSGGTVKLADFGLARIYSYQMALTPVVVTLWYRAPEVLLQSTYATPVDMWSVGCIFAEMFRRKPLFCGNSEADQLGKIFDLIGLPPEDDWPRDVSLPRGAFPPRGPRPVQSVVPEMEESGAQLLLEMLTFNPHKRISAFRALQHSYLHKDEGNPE

[21] = biological target: Glycogen synthase kinase-3 beta (Mus musculus) (UniProt Q9WV60); test: Inhibition of GSK3beta in mouse N2a cells overexpressing human tau protein assessed as phosphorylated tau Ser396 residue level at 15 uM incubated for 1 hr followed by okadaid-acid addition and measured after 5 hrs by Western blot analysis relative to control; assay type: cell-based; parameters: scale not given: the % may be the effect or the level left; details: time 6.0 hrs
[22] = biological target: Mitogen-activated protein kinase 3 (Homo sapiens) (UniProt P27361); test: Inhibition of ERK1 (unknown origin) at 300 nM relative to control
Mitogen-activated protein kinase 3 (Homo sapiens), sequence (P27361 whole entry): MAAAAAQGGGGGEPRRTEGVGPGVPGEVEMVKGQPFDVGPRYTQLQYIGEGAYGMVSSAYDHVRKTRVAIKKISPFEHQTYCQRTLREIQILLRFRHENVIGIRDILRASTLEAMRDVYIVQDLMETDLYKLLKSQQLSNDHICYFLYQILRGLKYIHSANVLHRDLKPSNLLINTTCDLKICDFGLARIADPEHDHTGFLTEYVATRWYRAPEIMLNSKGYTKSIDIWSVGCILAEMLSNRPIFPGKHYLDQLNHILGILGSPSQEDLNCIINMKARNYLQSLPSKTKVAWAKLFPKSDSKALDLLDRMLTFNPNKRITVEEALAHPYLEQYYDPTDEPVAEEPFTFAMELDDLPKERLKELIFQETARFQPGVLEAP

[23] = biological target: T2, Glycogen synthase kinase-3 beta; test: biochemical
Description: Inhibition of recombinant human N-terminal His6-tagged GSK-3beta H350L mutant expressed in baculovirus infected Sf21 cells using GSM as substrate incubated for 30 mins in presence of ATP by kinase-glo luminescence assay

Homo sapiens [24] = species: Homo sapiens; test: Selectivity for GSK3 (unknown origin) over JNK2 (unknown origin)
[25] = biological target: T3, Dual specificity tyrosine-phosphorylation-regulated kinase 1B (Homo sapiens, UniProt Q9Y463); test: Inhibition of DYRK1beta (unknown origin) at 300 nM relative to control
Target sequence in this assay (Q9Y463 whole entry, looked up): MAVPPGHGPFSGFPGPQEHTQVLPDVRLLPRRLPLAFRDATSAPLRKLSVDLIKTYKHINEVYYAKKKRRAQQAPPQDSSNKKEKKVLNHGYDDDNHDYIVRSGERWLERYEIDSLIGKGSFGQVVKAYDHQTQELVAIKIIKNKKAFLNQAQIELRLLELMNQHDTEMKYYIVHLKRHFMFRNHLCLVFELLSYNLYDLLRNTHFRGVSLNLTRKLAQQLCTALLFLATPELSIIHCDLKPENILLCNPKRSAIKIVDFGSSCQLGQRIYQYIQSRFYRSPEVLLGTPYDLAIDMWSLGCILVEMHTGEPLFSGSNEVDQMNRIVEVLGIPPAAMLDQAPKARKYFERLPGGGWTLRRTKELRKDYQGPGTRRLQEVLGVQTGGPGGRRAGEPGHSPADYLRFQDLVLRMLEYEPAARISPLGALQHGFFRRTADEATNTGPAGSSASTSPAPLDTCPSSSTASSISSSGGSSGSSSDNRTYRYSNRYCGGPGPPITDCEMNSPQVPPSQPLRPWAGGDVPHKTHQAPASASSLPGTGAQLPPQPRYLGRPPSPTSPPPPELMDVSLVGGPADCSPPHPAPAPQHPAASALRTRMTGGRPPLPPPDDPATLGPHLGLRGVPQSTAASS

Homo sapiens [26] = species: Homo sapiens; test: Selectivity for GSK3 (unknown origin) over MAPK p38 alpha (unknown origin)
[27] = biological target: Glycogen synthase kinase-3 alpha (Homo sapiens) (UniProt P49840); test: Inhibition of GSK-3alpha (unknown origin) at 300 nM relative to control
Glycogen synthase kinase-3 alpha (Homo sapiens), sequence (P49840 2-483 limits assumed): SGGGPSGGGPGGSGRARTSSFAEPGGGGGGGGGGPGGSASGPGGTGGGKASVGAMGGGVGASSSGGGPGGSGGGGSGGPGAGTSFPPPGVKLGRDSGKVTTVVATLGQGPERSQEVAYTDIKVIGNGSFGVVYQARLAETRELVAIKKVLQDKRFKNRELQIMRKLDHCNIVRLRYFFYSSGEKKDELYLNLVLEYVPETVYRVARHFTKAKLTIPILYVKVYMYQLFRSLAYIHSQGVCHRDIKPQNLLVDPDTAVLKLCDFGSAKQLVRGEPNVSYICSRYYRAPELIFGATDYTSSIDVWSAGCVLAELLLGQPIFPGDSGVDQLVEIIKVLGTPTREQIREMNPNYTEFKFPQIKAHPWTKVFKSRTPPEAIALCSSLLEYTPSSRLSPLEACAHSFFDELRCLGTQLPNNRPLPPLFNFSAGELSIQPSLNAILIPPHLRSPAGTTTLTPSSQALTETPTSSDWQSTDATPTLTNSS

Homo sapiens [28] = species: Homo sapiens; test: Selectivity for GSK3 (unknown origin) over CDK4 (unknown origin)
[29] = biological target: T3, Dual specificity tyrosine-phosphorylation-regulated kinase 1B; test: Inhibition of DYRK1beta (unknown origin)
Target sequence in this assay (Q9Y463 whole entry): as the sequence (Q9Y463 whole entry, looked up) above

Homo sapiens [30] = species: Homo sapiens; test: Selectivity for GSK3 (unknown origin) over CDK9 (unknown origin)
[31] = Effect on swimming speed in ICR mouse model of scopolamine-induced memory impairment at 15 mg/kg, po administered 30 mins prior to scopolamine injection by Morris water maze test; assay type: ADME, organism-based; details: in vivo, 0.5 h
Homo sapiens [32] = species: Homo sapiens; test: Selectivity for GSK3 (unknown origin) over ERK2 (unknown origin)
Homo sapiens [33] = species: Homo sapiens; test: Selectivity for GSK3 (unknown origin) over MAPK p38 beta (unknown origin)
Homo sapiens [34] = species: Homo sapiens; test: Selectivity for GSK3 (unknown origin) over ERK1 (unknown origin)
[35] = biological target: Glycogen synthase kinase-3 beta (Mus musculus) (UniProt Q9WV60); test: Inhibition of GSK3beta in mouse N2a cells overexpressing human tau protein assessed as phosphorylated tau Ser396 residue level at 10 uM incubated for 1 hr followed by okadaid-acid addition and measured after 5 hrs by Western blot analysis relative to control; assay type: cell-based; parameters: scale not given: the % may be the effect or the level left; details: time 6.0 hrs
N2a = test: Effect on tau protein expression in mouse N2a cells transfected with human tau protein at 5 to 15 uM incubated for 1 hr followed by okadaid-acid addition and measured after 5 hrs by Western blot analysis; assay type: functional, cell-based; details: dose 5-15 µM, time 6.0 hrs

For CNC(=O)c1sc(-c2ccnc(NC(=O)CNCCNc3c4c(nc5ccccc35)CCCC4)c2)nc1OCC1CC1, the Activity [1] was “Non-Toxic”, the inhibition [2] was 49% and the inhibition [3] was 20.6%. It also gave a Selectivity ratio (Homo sapiens [4]) of 100, a Selectivity ratio (Homo sapiens [5]) of 100 and a Papp at 20 h, 100 ug/ml (in vitro) of 6.9 ×10⁻⁶ cm/s. The Selectivity ratio (Homo sapiens [6]) was 100, the inhibition (BV-2) was “Active” and the inhibition [7] was 16.7%. It also gave an inhibition [8] of 5.21%, an inhibition [9] of 83.7% and an inhibition [10] of 9.78%. For the same compound, the IC50 [11] was 28.3 nM, the Selectivity ratio (Homo sapiens [12]) was 100 and the Activity (Mus musculus) was “Active”. The Selectivity ratio (Homo sapiens [13]) was 100, the Selectivity ratio (Homo sapiens [14]) was 100 and the IC50 (Acetylcholinesterase) was 1.2 nM. For the same compound, the inhibition [15] was 86.3%, the inhibition [16] was 3.8% and the inhibition [17] was 29.8%. The IC50 (Cholinesterase) was 150 nM, the Selectivity ratio (Homo sapiens [18]) was 100 and the inhibition [19] was 7.64%. For the same compound, the inhibition [20] was 3.07%, the Activity [21] was 17% and the inhibition [22] was 13.1%. The IC50 [23] was 22 nM, the Selectivity ratio (Homo sapiens [24]) was 100 and the inhibition [25] was 67.9%. For the same compound, the Selectivity ratio (Homo sapiens [26]) was 100, the inhibition [27] was 91.1% and the Selectivity ratio (Homo sapiens [28]) was 100. For the same compound, the IC50 [29] was 120 nM, the Selectivity ratio (Homo sapiens [30]) was 100 and the Activity [31] was “Non-Toxic”. For the same compound, the Selectivity ratio (Homo sapiens [32]) was 100, the Selectivity ratio (Homo sapiens [33]) was 100 and the Selectivity ratio (Homo sapiens [34]) was 100. The Activity [35] was 25.8% and the Activity (N2a) was “inactive”.
